Source: PubChem BioAssay (NCI)
“And” between values parts separate entries of the source, which are not always exact repeats. Equal entries are not always repeated.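 A five-concentration, 48-hour dose response in 96-well plates underlies each endpoint, interpolated linearly between surrounding concentrations. Abbreviation: GI50, concentration required for 50% inhibition of growth. TGI is the concentration that stops growth completely.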

tested on: HCT-116 colon; assay: NCI tumour cell line growth inhibition, 48 h

Question: `CC(=O)OCCOCNC(=S)N/N=C(\C)c1cnccn1` was tested. Which TGI did it give?
Answer: The TGI was > 100 µM.

Question: What does the source list for `CCCCCCCCCCCCC(O)c1ccc(C#CCCCCCCCCCO)o1` (stereo not drawn)?
Answer: GI50: 14.4 µM; TGI: 27.4 µM

Question: Which TGI does the source give for `O=C(Nc1ccccc1-c1nn(C(=S)Nc2ccccc2)c(=S)n(C(=S)Nc2ccccc2)c1=O)C(F)(F)F` here?
Answer: The TGI was > 51.4 µM.

Question: Which TGI does the source give for `O=c1c(-c2ccccc2)c2oc(c1-c1ccccc1)CSCc1cccc(c1)CSC2` here?
Answer: The TGI was > 100 µM.

Question: Which TGI does the source give for `CN(C)CCn1c2c3ccccc3ccc2c2oc(=O)c3ccccc3c21` here?
Answer: Its TGI is 29.1 µM.

tested on: NCI/ADR-RES ovarian; assay: NCI tumour cell line growth inhibition, 48 h

Question: Which results are given for `CCCCCCCCCCCCCCCC[N+](C)(C)Cc1ccccc1`?
Answer: GI50: 14.4 µM and 12 µM; TGI: 45.1 µM and 42 µM

Question: `O=C1CCCCN1c1ccccc1C#C/C=C\C#Cc1ccccc1C(F)(F)F` was tested. Which GI50 did it give?
Answer: Its GI50 is 0.946 µM.

Question: What about the TGI of the same compound?
Answer: The TGI was 2.48 µM.

Question: `CN(C)CC1CC/C(=C\c2ccc(O)cc2)C1=O` (stereo not drawn) was tested. Which TGI did it give?
Answer: Its TGI is 21.5 µM.

Question: With `Cc1ccc(-n2c3nc(=O)[nH]c(=O)c-3cc3cc([N+](=O)[O-])ccc32)cc1` as the compound, how does the GI50 read?
Answer: Its GI50 is 10.7 µM.

Question: And the TGI?
Answer: The TGI was 34.4 µM.

Question: `CC1=C2C(=C[C@@](C)(CO)[C@@H]2O)C(=O)[C@](C)(O)C12CC2` was tested. Which TGI did it give?
Answer: The TGI was 0.0243 µM.

Question: For `CCCOc1cc2ccccc2cc1C(=O)Nc1nc(N)c2c(ccc3nccc32)[nH]1`, which GI50 is on record?
Answer: The GI50 was 0.0962 µM.

Question: And the TGI?
Answer: The TGI was 2.24 µM.

Question: With `CC1(C)OC1COc1c2occc2cc2ccc(=O)oc12` (stereo not drawn) as the compound, how does the TGI read?
Answer: Its TGI is > 100 µM.

Question: Which results are given for `CCCCCCCCCCCCC(O)c1ccc(C#CCCCCCCCCCO)o1` (stereo not drawn)?
Answer: GI50: 18.3 µM; TGI: 34.3 µM

tested on: MDA-MB-435; assay: NCI tumour cell line growth inhibition, 48 h

Question: How did the GI50 turn out when `CCCCCCCCCCCCCCCC[N+](C)(C)Cc1ccccc1` was run?
Answer: Its GI50 is 1.54 µM.

Question: What about the TGI of the same compound?
Answer: The TGI was 2.91 µM.

Question: With `O=C1CCCCN1c1ccccc1C#C/C=C\C#Cc1ccccc1C(F)(F)F` as the compound, how does the GI50 read?
Answer: The GI50 was 0.603 µM.

Question: And the TGI?
Answer: The TGI was 1.8 µM.

Question: `CN(C)CC1CC/C(=C\c2ccc(O)cc2)C1=O` (stereo not drawn) was tested. Which TGI did it give?
Answer: Its TGI is 10.8 µM.

Question: Which GI50 does the source give for `Cc1ccc(-n2c3nc(=O)[nH]c(=O)c-3cc3cc([N+](=O)[O-])ccc32)cc1` here?
Answer: Its GI50 is 4.01 µM.

Question: And the TGI?
Answer: Its TGI is 17.7 µM.

Question: With `CC1=C2C(=C[C@@](C)(CO)[C@@H]2O)C(=O)[C@](C)(O)C12CC2` as the compound, how does the TGI read?
Answer: Its TGI is 0.0312 µM.

Question: For `CCCOc1cc2ccccc2cc1C(=O)Nc1nc(N)c2c(ccc3nccc32)[nH]1`, which GI50 is on record?
Answer: Its GI50 is 0.0133 µM.

Question: And the TGI?
Answer: Its TGI is 0.0432 µM.

Question: How did the TGI turn out when `CC1(C)OC1COc1c2occc2cc2ccc(=O)oc12` (stereo not drawn) was run?
Answer: Its TGI is > 100 µM.

Question: Which GI50 does the source give for `CCCCCCCCCCCCC(O)c1ccc(C#CCCCCCCCCCO)o1` (stereo not drawn) here?
Answer: Its GI50 is 18.9 µM.

Question: What about the TGI of the same compound?
Answer: The TGI was 34.3 µM.

tested on: UACC-62 melanoma; assay: NCI tumour cell line growth inhibition, 48 h

Question: `COC(=O)CC(c1ccccc1)C1(c2ccccc2)SCCS1` (stereo not drawn) was tested. Which TGI did it give?
Answer: Its TGI is > 290 µM.

Question: Which TGI does the source give for `CCOC(=O)C1=C(C(=O)OCC)C2c3ccccc3C=CN2C(C(=O)OCC)=C(SC)S1` (stereo not drawn) here?
Answer: The TGI was > 100 µM.

Question: Which results are given for `CCCCCCCCCCCCCCCC[N+](C)(C)Cc1ccccc1`?
Answer: GI50: 1.36 µM; TGI: 2.98 µM

Question: `CC(=O)NNc1nc(C)c(C(=O)/C=C/c2ccc(NC(C)=O)cc2)s1` was tested. Which TGI did it give?
Answer: The TGI was > 100 µM.

Question: For `CCCCCC[C@@H]1CCC2C(CO)[C@@H](O)CC[C@@H]2C1` (stereo partly drawn), which TGI is on record?
Answer: Its TGI is 38.6 µM.

Question: How did the TGI turn out when `NC(=O)c1ccccc1NC(=O)C(=O)C(C(=O)c1ccc(Cl)c(Cl)c1)C1OC(=O)c2ccccc21` (stereo not drawn) was run?
Answer: Its TGI is > 100 µM.

Question: Which TGI does the source give for `S=c1sc2c(n1-c1ccccc1)NC=NC2S` (stereo not drawn) here?
Answer: The TGI was > 100 µM.

Question: With `Cc1ccc(/C=C/C(=O)CCN(C)C)cc1` as the compound, how does the TGI read?
Answer: Its TGI is 28.2 µM.

Question: With `Cc1ccc(Oc2ccc(C)cc2N)cc1` as the compound, how does the TGI read?
Answer: Its TGI is > 100 µM.

Question: For `c1ccc(NCn2cnc3ccccc32)cc1`, which TGI is on record?
Answer: Its TGI is > 100 µM.

Question: For `Cc1cc2c(C)[nH]nc2c(C(=O)O)c1C`, which TGI is on record?
Answer: The TGI was > 100 µM.

Question: `N#C/C(=C\c1cccc(Cl)c1Cl)c1ccccc1` was tested. Which TGI did it give?
Answer: The TGI was > 100 µM.

Question: Which TGI does the source give for `C/C(=N/Nc1ccc([N+](=O)[O-])cc1[N+](=O)[O-])C(CC(C(=O)NCc1ccccc1)/C(C)=N\Nc1ccc([N+](=O)[O-])cc1[N+](=O)[O-])C(=O)NCc1ccccc1` (stereo not drawn) here?
Answer: The TGI was 28.4 µM.

Question: With `N[C@@H]1CCCC[C@@H]1N.O=P([O-])([O-])CN(CCN(CP(=O)([O-])[O-])CP(=O)([O-])[O-])CP(=O)([O-])[O-].[Pt+2]` as the compound, how does the GI50 read?
Answer: The GI50 was > 25 µM.

Question: What about the TGI of the same compound?
Answer: Its TGI is > 25 µM.

Question: `COc1ccc(OC)c(N2CC(N)C2=O)c1` (stereo not drawn) was tested. Which TGI did it give?
Answer: Its TGI is > 100 µM.

Question: How did the GI50 turn out when `O=C1CCCCN1c1ccccc1C#C/C=C\C#Cc1ccccc1C(F)(F)F` was run?
Answer: The GI50 was 1.44 µM.

Question: And the TGI?
Answer: Its TGI is 4.86 µM.

Question: For `O=C(/C=C/c1ccc([N+](=O)[O-])cc1)c1ccc(NCc2nc3ccccc3[nH]2)cc1`, which TGI is on record?
Answer: Its TGI is 26 µM.

Question: How did the TGI turn out when `Cc1cccc(C)c1NC(=O)CCCC(=O)C1/C(=N/NC(=O)CC#N)CCC/C1=N\NC(=O)CC#N` (stereo not drawn) was run?
Answer: The TGI was > 100 µM.

Question: `CN(C)CC1CC/C(=C\c2ccc(O)cc2)C1=O` (stereo not drawn) was tested. Which TGI did it give?
Answer: The TGI was 15.5 µM.

Question: With `O=c1ccc2ccccc2cc1[O-].O=c1ccc2ccccc2cc1[O-].[O]=[U+2]=[O]` as the compound, how does the GI50 read?
Answer: The GI50 was 16.9 µM.

Question: And the TGI?
Answer: The TGI was 39.6 µM.

Question: Which results are given for `Cc1ccc(-n2c3nc(=O)[nH]c(=O)c-3cc3cc([N+](=O)[O-])ccc32)cc1`?
Answer: GI50: 12.1 µM; TGI: 29.8 µM

Question: Which TGI does the source give for `COC(=O)C(CCCN1C(=O)c2ccccc2C1=O)C(=O)OC` here?
Answer: The TGI was > 100 µM.

Question: How did the TGI turn out when `COc1nc(NC2OC(COC(C)=O)C(OC(C)=O)C(OC(C)=O)C2OC(C)=O)c2c(OC(C)=O)cc(=O)oc2n1` (stereo not drawn) was run?
Answer: Its TGI is > 100 µM.

Question: For `CC(C)(C)c1cc2c(O)c3cccc4c(=O)c5cccc6c5-c(c34)c2c(c1)c6=O`, which TGI is on record?
Answer: The TGI was > 100 µM.

Question: Which TGI does the source give for `CC1=C2C(=C[C@@](C)(CO)[C@@H]2O)C(=O)[C@](C)(O)C12CC2` here?
Answer: Its TGI is 0.0265 µM.

Question: `O=C1C=CC(=O)c2nc3c(cc21)CCC3` was tested. Which TGI did it give?
Answer: Its TGI is 33 µM.

Question: `O=S(=O)(N/N=C/c1cccc(/C=N/NS(=O)(=O)c2ccccc2)c1)c1ccccc1` was tested. Which TGI did it give?
Answer: Its TGI is > 100 µM.

Question: How did the TGI turn out when `CCCCN(CCCC)C(=O)C(=O)C(C(=O)c1ccc(OC)cc1)c1ccc(OC)cc1` (stereo not drawn) was run?
Answer: The TGI was > 100 µM.

Question: Which TGI does the source give for `C=C(C)CCOC(c1ccccc1)(c1ccccc1)c1ccccc1` here?
Answer: The TGI was > 100 µM.

Question: Which TGI does the source give for `COc1ccc(C)cc1-c1cc(Sc2ccccc2)c(-c2cc(C)ccc2OC)o1` here?
Answer: Its TGI is > 31.6 µM.

Question: For `CC(=O)O/N=C(/C)c1ccccc1O`, which TGI is on record?
Answer: Its TGI is > 100 µM.
